What was measured:
Caspase = test: One hour kinetic assay detection of Caspase using U-937 cells; assay type: cell-based; conditions: above the 50% DMSO concentration; due to non-specific signal from uninduced cell controls
Protocol: (§1) To initiate such assays, 25 μl of Caspase CellProbe Reagent™ (Beckman Coulter) was added to a suspension of 1×10^5 U-937 cells in 110 μl of culture medium in a 96-well microtiter plate. Cells were incubated for one hour, and had been either uninduced or induced by prior incubation in the presence of 2.5 μM Camptothecin. The final concentration of the Caspase CellProbe Reagent™ was 30 μM.
The results shown in FIG. 4 is of kinetic signal from twenty fluorescence readings of the one hour assay. In FIG. 4, lines containing a diamond (♦) denote unmixed samples; lines containing boxes (▪) and appearing as thick lines denote mixed samples.

HeLa cells [1] = test: CellProbe assay in HeLa cells with betaine (Example 4); assay type: cell-based; conditions: HeLa 1.5×10^4/well, 30 μM CellProbe substrate; particularly if unmixed
Protocol: For such experiments, HeLa cells are seeded overnight at 1.5×10^4/well and provided with 30 μM CellProbe substrate (final concentration).

HeLa cells [2] = test: CellProbe assay in HeLa cells with betaine (Example 5); assay type: cell-based; conditions: betaine 2.0-2.4 M; HeLa 7.5×10^3/well, 25 μM CellProbe substrate; particularly if unmixed
Protocol: The enhanced detection sensitivity of the assays of the present invention resulting from the use of Betaine (at 2.0, 2.1, 2.2, 2.3, 2.4 M) is shown in FIG. 8. For such experiments, HeLa cells are seeded overnight at 7.5×10^3/well and provided with CellProbe substrate (25 μM final concentration). […] Results of similar assays conducted with 35% DMSO are shown for comparison.

aminopeptidase = conditions: concentrations of approximately 10 mM; cited from earlier work
Caspase 6 [3] = test: Caspase 6 CellProbe assay in HeLa cells (Example 6); assay type: cell-based; conditions: HeLa 1.5×10^4 cells/well, 30 μM CellProbe, 1 hour
Protocol: To initiate such assays, Caspase CellProbe Reagent™ (Beckman Coulter) is added to a suspension of 1.5×10^4 HeLa cells/well in a 96-well microtiter plate. The final concentration of the Caspase CellProbe Reagent™ was 30 μM. Reaction is for 1 hour and is as described in Example 1.

Caspase 6 [4] = test: Caspase 6 CellProbe assay for apoptosis using HeLa cells (Example 2); assay type: cell-based
Protocol: To initiate 110 such assays, Caspase CellProbe Reagent™ (Beckman Coulter) is added to a suspension of 1.5×10^4 HeLa cells/well in a 96-well microtiter plate. The final concentration of the Caspase CellProbe Reagent™ was 30 μM. Reaction is for 1 hour.
In FIG. 5, and in the examples below, the Fluorescence Ratio is defined as: Fluorescence Ratio=Induced Fluorescence/Uninduced Fluorescence where the Induced Fluorescence is the difference between the 1 Hour Value and the Start of Assay Value, and the Uninduced Fluorescence is the difference between the 1 Hour Value and the Uninduced Start Value. In FIG. 5, data are plotted as a function of potassium glutamate or DMSO concentration. The dark columns indicate results obtained upon mixing the samples, while the light columns indicate results obtained when the samples were not mixed after the addition of glutamate.

Caspase 3 = Caspase 3 CellProbe assay with U-937 suspension cells; assay type: cell-based
Protocol: as §1
(§2) In the Figures, the 5 series of columns reflect results obtained with no glycerol, 20% glycerol, 30% glycerol, 40% glycerol and 50% glycerol. The individual columns (left to right) within each data series reflect results for: unmixed sample—induced; unmixed sample—uninduced; mixed sample—induced; and mixed sample—uninduced.

Caspase 1 = Caspase 1 CellProbe assay with U-937 suspension cells; assay type: cell-based
Protocol: as §1, §2

Caspase 6 [5] = test: Caspase 6 CellProbe assay with U-937 suspension cells; assay type: cell-based
Protocol: as §1, §2

[6] = various optimal glycerol concentrations (20-50%), U-937 cells, 30 μM CellProbe, 1 hour

C[S+](C)[O-] [DMSO, dimethyl sulfoxide]
signal ratio (induced/uninduced) (Caspase): signal ratio decrease

C[N+](C)(C)CC(=O)O [betaine]
assay sensitivity (HeLa cells [1]): improved assay sensitivity | assay sensitivity (HeLa cells [2]): improved assay sensitivity

[Ca+2].[Cl-].[Cl-] [calcium chloride]
effect on enzyme reaction with the assay compound (aminopeptidase): inhibitory

OCCO [ethylene glycol]
assay performance (detection sensitivity) (Caspase 6 [3]): improved assay performance

N[C@@H](CCC(=O)[O-])C(=O)[O-].[K+].[K+] [glutamate, potassium glutamate]
detection of Caspase 6 activity (Caspase 6 [4]; glutamate 1.5 M, 1.7 M, 1.8 M, 2.0 M, HeLa cells, 1 hour): dramatic improvement | assay sensitivity (Caspase 6 [4]; inclusion of glutamate, particularly if unmixed): improved assay sensitivity

CCOC(=O)CC[C@H](N)C(=O)OCC [glutamic acid diethyl ester]
detection sensitivity (Caspase 6 [3]): did not enhance detection sensitivity

OCC(O)CO [glycerol]
relative signal, Caspase 3 (Caspase 3; raising the glycerol concentration from 0 to 50%, greater magnitude when unmixed): significant relative signal increase | detection of Caspase 3 activity (Caspase 3; [6]): dramatic improvement | effect on Caspase 1 assay (Caspase 1; added unmixed glycerol ~40%): deleterious effect | detection of Caspase 1 activity (Caspase 1; [6]): dramatic improvement | effect on Caspase 6 assay (Caspase 6 [5]; added unmixed glycerol ~50%): deleterious effect | detection of Caspase 6 activity (Caspase 6 [5]; [6]): dramatic improvement

O=C(O)[C@@H]1CCCN1 [proline]
detection sensitivity (Caspase 6 [3]): did not enhance detection sensitivity

O=C[C@H](O)[C@H](O)[C@H](O)CO [ribose]
assay performance (detection sensitivity) (Caspase 6 [3]): improved assay performance

OC[C@@H](O)[C@H](O)CO [threitol]
assay performance (detection sensitivity) (Caspase 6 [3]): improved assay performance

OC[C@H]1O[C@H](O[C@H]2O[C@H](CO)[C@@H](O)[C@H](O)[C@H]2O)[C@H](O)[C@@H](O)[C@@H]1O [trehalose]
assay performance (detection sensitivity) (Caspase 6 [3]): improved assay performance

C[N+](C)(C)[O-] [trimethylamine N-oxide]
assay performance (detection sensitivity) (Caspase 6 [3]): improved assay performance
